Measurements from ChEMBL document CHEMBL1201862, “PubChem BioAssay data set” (2004).
Activity calls are given as the source filed them.

Assays:
cells [1] = assay type: functional, cell-based; conditions: HEK-CNG
INS1 = assay: INS-1E survival protection against cytokine death – cell-based, luminescence, retest, dose response (AID 449756); assay type: functional; conditions: Rattus norvegicus;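 further: cell death triggered by IL-1 beta plus TNF-alpha plus IFN-gamma mixture; protective hits raise ATP signal compared with cytokine alone wells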
Protein RecA = target: T1, Protein RecA (Mycobacterium tuberculosis, UniProt P9WHJ3); assay: Fluorescence Cell-Free Homogeneous Dose Retest to Identify Inhibitors of RecA-Intein Splicing Activity. [Related pubchem assays (depositor defined):AID2097, AID2223, AID489010, AID492950]; assay type: functional
T1 sequence (P9WHJ3 whole entry): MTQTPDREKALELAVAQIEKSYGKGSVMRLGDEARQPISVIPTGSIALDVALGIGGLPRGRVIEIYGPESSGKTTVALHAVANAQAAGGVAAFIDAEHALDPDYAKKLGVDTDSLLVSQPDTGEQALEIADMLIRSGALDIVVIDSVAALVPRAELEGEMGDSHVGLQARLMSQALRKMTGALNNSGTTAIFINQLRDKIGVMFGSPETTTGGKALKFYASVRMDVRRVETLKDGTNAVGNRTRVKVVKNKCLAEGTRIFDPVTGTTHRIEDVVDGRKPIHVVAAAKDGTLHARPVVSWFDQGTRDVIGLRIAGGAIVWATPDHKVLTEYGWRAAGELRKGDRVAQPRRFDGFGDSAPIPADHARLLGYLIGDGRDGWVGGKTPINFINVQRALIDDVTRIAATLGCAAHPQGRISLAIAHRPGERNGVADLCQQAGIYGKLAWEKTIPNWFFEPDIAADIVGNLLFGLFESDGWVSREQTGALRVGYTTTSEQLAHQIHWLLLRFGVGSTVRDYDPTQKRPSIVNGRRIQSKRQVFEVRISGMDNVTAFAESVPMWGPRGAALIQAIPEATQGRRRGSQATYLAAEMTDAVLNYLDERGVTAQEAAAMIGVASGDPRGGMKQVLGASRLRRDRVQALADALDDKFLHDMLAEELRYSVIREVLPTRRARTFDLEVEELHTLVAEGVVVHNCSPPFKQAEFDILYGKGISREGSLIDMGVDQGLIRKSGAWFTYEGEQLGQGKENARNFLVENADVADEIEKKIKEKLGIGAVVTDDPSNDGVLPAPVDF

BJ [2] = assay: cells; assay type: functional, cell-based; conditions: Homo sapiens
HEK293 [3] = assay: EBV LMP1 TES2 canonical NF-kB signalling blockers – cell-based, HEK293, luciferase, cherry-pick, dose response (AID 588343); assay type: functional; conditions: Homo sapiens
[4] = DRD fibroblast viability loss – cell-based, non-viral oncogenic, luminescence, dose response (AID 1934); assay type: functional; conditions: Homo sapiens
Galanin receptor type 3 = Galanin receptor type 3 (Homo sapiens, UniProt O60755); assay: Fluorescence-based cell-based primary high throughput dose response assay to identify antagonists of the Galanin Receptor 3 (GalR3).; assay type: functional
[5] = target: T2, Replicative DNA helicase DnaB (Mycobacterium tuberculosis, UniProt P9WMR3); assay: DnaB intein splicing inhibitors, dose response, biochemical, cell-free fluorescence (AID 449749); assay type: functional
T2 sequence (P9WMR3 whole entry): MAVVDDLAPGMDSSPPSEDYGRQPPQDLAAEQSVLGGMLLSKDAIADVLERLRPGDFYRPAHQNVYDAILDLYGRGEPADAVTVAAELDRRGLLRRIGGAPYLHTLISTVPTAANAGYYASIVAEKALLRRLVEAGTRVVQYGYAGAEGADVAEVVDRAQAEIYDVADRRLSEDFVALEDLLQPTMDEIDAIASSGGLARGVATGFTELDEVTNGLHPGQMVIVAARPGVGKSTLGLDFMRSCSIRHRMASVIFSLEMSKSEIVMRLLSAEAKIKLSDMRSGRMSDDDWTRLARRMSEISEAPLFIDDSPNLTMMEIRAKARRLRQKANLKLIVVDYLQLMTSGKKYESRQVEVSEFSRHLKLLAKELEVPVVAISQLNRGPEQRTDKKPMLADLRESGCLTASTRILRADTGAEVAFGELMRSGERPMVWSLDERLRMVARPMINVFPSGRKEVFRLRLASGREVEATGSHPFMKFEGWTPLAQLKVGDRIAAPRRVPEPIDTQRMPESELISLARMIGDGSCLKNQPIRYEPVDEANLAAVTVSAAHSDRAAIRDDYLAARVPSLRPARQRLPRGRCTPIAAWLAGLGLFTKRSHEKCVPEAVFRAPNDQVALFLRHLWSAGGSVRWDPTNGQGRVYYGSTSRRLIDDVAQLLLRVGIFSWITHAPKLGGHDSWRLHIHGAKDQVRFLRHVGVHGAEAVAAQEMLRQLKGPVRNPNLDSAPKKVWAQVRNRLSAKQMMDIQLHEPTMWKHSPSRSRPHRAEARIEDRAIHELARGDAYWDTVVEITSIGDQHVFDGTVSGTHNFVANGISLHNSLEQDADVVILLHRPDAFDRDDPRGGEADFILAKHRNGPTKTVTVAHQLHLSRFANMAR

BJ [6] = assay: growth inhibition of engineered Ras-driven BJ cells – cell-based, alamar blue fluorescence, cherrypicked samples, dose response (AID 2631); assay type: functional; conditions: Homo sapiens;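 further: confirmatory dose-response assay in RAS-dependent BJ fibroblasts engineered with TERT, LT and ST, with cytotoxicity read by fluorescence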
Paired box protein Pax-8 = Paired box protein Pax-8 (Homo sapiens, UniProt Q06710); assay: PAX8 transcriptional activity inhibition in RMG-I – RMG-I cells, luciferase, cherry-pick, dose response (AID 687027); assay type: functional, cell-based;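 further: luciferase reporter driven by Pax8 target thyroperoxidase promoter measured by SteadyGlo luminescence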
BJ [7] = assay: BJ-TERT fibroblast viability loss – cell-based, RAS-independent, luminescence, dose response (AID 1933); assay type: functional; conditions: Homo sapiens
BJ [8] = assay: BJ-TERT-LT-ST fibroblast viability loss – cell-based, RAS-independent, luminescence, dose response (AID 1935); assay type: functional; conditions: Homo sapiens;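 further: BJ fibroblasts immortalized with TERT plus LT and ST oncogenes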
[9] = non-specific 3'UTR reporter inhibition in Clone20-Shn3RL – cell-based, Renilla luciferase, cherry-picked, counter-screen for Shn3 inhibitor project, dose response (AID 624133); assay type: functional
Jurkat = assay: SAR Analysis of small molecule inhibitors of T-cell specific antigen receptor-induced NF-kB activation in a Jurkat cell line using a luminescence assay - Set 2. [Related pubchem assays (depositor defined):AID435003, AID435012, AID465]; assay type: functional, cell-based; conditions: Homo sapiens
Exodeoxyribonuclease V = Exodeoxyribonuclease V (Escherichia coli (strain K12), UniProt P04993+P07648+P08394); assay: RecBCD inhibition via phage-restricted bacterial growth – absorbance, V66 E. coli, mutant T4 phage, counter-screen for AddAB inhibitor project, dose response (AID 492957); assay type: functional, cell-based, Escherichia coli str. K-12 substr. MG1655
[10] = loss of viability in HepG2 cells – cell-based, CellTiter-Glo, cherry-picked, cytotoxicity control for Shn3 inhibitor project, dose response (AID 624134); assay type: functional
[11] = HEK-293T viability loss after treatment – luminescence, T-cell screen hits, cytotoxicity control for TCR NF-kB inhibitor project, dose response (AID 489026); assay type: functional, cell-based;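 further: cells exposed to compound about 14 hours before the viability readout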
HEK293 [12] = assay: HEK293T cell viability loss, resazurin readout – resazurin fluorescence, cytotoxicity control for NF-kB activator project, SAR follow-up (AID 493251); assay type: functional, cell-based; conditions: Homo sapiens
cells [13] = assay type: functional, cell-based
[14] = Trypanosoma cruzi growth suppression in host cells – NIH3T3 host cells, beta-gal luminescence, confirmation (AID 2044); assay type: functional, cell-based;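 further: intracellular parasites grown in NIH/3T3 mouse fibroblasts as host cells; luminescent beta-galactosidase reporter signal from transgenic T. cruzi replicating inside host cells; inhibitors lower the luminescence signal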
[15] = Luminescence-based dose response cell-based high throughput screening assay for cytotoxic compounds using the IEC-6 intestinal epithelial cell line. [Related pubchem assays: 1858 (Summary AID.), 1825 (Counterscreen.), 1907 (Confirmation screen.)]; assay type: functional
HEK293 [16] = assay: SAR Analysis of small molecule inhibitors of T-cell specific antigen receptor-induced NF-kB activation in a HEK-293T cell line using a luminescence assay - Set 2. [Related pubchem assays (depositor defined):AID435003, AID435012, AID489026]; assay type: functional, cell-based; conditions: Homo sapiens
[17] = target: Heat shock protein HSP 90-alpha (Homo sapiens, UniProt P07900); assay type: functional, organism-based
cells [18] = assay type: functional, cell-based; remark: listed apart in the source
[19] = Counterscreen for AddAB inhibitors: absorbance-based bacterial cell-based high throughput dose response assay for inhibitors of bacterial viability. [Related pubchem assays (depositor defined):AID435030, AID449728, AID449731, AID488942, AID488955, AID488956]; assay type: functional
[20] = NIH3T3 cell viability loss – ATP luminescence, mouse fibroblasts, counter-screen, dose response (AID 2010); assay type: functional, cell-based;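 further: cells exposed to compound for about 90 hours before reading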
[21] = reduction of Shn3 3'UTR-driven luciferase in osteoblasts – cell-based, Clone20 osteoblasts, firefly luciferase, cherry-picked, dose response (AID 624132); assay type: functional;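 further: firefly luciferase luminescence from reporter carrying the Shn3 3'UTR in osteoblasts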
MEF = assay: SAR analysis of small molecule cytotoxicity of MazEF TA System activators in embryonic fibroblast (MEF) cells. [Related pubchem assays (depositor defined):AID504720, AID504743]; assay type: functional; conditions: Mus musculus
[22] = target: T3, Endoribonuclease toxin MazF (Escherichia coli K-12, UniProt P0AE70); assay: SAR analysis of small molecule activators of the MazEF TA System via a fluorescence-based single-stranded RNase assay counterscreen. [Related pubchem assays (depositor defined):AID504720, AID504743]; assay type: functional
T3 sequence (P0AE70 whole entry): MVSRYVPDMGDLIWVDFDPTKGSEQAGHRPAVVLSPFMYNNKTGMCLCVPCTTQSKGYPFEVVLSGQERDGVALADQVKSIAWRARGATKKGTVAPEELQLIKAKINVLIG

[23] = target: T3, Endoribonuclease toxin MazF; assay: MazEF toxin-antitoxin RNase activation – biochemical, fluorescence, single-stranded RNA substrate, SAR follow-up (AID 588603); assay type: functional
[24] = target: T3, Endoribonuclease toxin MazF; assay: substrate-only fluorescence increase artefacts – biochemical, single-stranded RNase substrate, counter-screen for MazEF activator project, dose response (AID 588502); assay type: functional
[25] = target: T3, Endoribonuclease toxin MazF; assay: activation of MazEF endoribonuclease cleavage – biochemical, fluorescence, single-stranded RNA substrate, uHTS hits, dose response (AID 588481); assay type: functional
Candida albicans [26] = assay: C. albicans growth inhibition with fluconazole – CaCi-2 strain, Alamar Blue, dry powder, set 4, dose response (AID 488943); assay type: functional, organism-based
Candida albicans [27] = assay: fluconazole-resistant Candida strain growth inhibitors – CaCi-8 strain, dry powder, set 4, dose response (AID 488950); assay type: functional, organism-based
Candida albicans [28] = assay: resistant Candida growth with fluconazole co-treatment – CaCi-8 strain, Alamar Blue, dry powder, set 2, dose response (AID 488909); assay type: functional, organism-based
Phospholipase A2 = Phospholipase A2 (Homo sapiens, UniProt P04054); assay type: functional;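 further: confirmatory dose-response counterscreen on phospholipase A2, testing hits that came from an ultra-high-throughput screen for ATG4B inhibitors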
Cysteine protease ATG4B = Cysteine protease ATG4B (Homo sapiens, UniProt Q9Y4P1); assay type: functional;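 further: Fluorescence-based dose-response confirmation assay measuring inhibition of ATG4B activity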
DNA topoisomerase = DNA topoisomerase (Yersinia pestis, UniProt A0A2S9PM60); assay: Yersinia topoisomerase I cleavage product accumulation – biochemical, cherry-pick, dose response (AID 588525)

Chain of Paired box protein Pax-8 (Q06710 whole entry): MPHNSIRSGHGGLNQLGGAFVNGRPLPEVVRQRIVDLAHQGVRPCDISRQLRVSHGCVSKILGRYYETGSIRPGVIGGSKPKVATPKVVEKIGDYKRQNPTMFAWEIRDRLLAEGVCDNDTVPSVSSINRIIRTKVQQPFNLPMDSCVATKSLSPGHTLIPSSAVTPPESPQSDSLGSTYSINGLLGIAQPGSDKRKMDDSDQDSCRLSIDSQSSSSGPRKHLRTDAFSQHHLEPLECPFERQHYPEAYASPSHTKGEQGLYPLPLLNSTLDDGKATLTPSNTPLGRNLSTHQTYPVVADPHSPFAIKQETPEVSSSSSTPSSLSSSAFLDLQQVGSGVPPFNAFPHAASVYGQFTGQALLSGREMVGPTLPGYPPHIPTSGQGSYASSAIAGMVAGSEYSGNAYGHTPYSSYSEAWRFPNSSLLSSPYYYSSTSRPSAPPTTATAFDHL
Chain of Cysteine protease ATG4B (Q9Y4P1 whole entry): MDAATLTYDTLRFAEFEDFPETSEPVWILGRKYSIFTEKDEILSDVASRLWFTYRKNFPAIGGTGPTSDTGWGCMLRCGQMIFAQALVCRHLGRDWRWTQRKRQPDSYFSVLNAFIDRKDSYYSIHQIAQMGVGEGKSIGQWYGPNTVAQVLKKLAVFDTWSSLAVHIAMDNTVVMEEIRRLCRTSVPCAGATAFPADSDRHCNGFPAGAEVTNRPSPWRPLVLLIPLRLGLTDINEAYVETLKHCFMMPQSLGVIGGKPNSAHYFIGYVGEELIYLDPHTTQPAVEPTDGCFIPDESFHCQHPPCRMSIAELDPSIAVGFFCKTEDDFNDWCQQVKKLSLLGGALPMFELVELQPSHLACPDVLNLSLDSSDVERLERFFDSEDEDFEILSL
Chain of Galanin receptor type 3 (O60755 whole entry): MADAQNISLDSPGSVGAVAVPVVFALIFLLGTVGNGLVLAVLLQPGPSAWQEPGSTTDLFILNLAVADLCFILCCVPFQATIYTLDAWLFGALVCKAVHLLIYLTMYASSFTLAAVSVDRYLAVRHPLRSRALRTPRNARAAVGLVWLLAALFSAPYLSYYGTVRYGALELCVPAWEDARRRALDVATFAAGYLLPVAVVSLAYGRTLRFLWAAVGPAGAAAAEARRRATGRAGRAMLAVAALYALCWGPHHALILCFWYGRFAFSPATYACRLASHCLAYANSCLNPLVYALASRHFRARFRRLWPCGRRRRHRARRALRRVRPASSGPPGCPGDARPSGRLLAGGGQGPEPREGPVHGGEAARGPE
Chain of Exodeoxyribonuclease V (P04993 whole entry): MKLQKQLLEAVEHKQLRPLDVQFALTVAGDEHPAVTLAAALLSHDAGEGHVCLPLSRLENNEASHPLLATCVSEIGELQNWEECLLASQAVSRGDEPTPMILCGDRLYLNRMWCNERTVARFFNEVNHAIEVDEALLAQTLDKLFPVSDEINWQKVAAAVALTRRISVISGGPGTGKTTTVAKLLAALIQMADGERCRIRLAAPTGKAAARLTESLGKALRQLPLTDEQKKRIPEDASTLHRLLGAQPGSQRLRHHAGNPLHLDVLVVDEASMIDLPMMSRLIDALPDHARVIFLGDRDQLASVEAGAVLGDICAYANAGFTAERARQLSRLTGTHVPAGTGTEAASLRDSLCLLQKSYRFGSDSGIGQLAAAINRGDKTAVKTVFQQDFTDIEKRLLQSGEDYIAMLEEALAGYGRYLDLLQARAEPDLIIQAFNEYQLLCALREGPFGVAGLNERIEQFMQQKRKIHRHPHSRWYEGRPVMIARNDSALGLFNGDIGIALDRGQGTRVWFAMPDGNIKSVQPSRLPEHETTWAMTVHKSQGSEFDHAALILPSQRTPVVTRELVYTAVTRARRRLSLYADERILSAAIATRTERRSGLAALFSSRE
Chain of Exodeoxyribonuclease V (P07648 whole entry): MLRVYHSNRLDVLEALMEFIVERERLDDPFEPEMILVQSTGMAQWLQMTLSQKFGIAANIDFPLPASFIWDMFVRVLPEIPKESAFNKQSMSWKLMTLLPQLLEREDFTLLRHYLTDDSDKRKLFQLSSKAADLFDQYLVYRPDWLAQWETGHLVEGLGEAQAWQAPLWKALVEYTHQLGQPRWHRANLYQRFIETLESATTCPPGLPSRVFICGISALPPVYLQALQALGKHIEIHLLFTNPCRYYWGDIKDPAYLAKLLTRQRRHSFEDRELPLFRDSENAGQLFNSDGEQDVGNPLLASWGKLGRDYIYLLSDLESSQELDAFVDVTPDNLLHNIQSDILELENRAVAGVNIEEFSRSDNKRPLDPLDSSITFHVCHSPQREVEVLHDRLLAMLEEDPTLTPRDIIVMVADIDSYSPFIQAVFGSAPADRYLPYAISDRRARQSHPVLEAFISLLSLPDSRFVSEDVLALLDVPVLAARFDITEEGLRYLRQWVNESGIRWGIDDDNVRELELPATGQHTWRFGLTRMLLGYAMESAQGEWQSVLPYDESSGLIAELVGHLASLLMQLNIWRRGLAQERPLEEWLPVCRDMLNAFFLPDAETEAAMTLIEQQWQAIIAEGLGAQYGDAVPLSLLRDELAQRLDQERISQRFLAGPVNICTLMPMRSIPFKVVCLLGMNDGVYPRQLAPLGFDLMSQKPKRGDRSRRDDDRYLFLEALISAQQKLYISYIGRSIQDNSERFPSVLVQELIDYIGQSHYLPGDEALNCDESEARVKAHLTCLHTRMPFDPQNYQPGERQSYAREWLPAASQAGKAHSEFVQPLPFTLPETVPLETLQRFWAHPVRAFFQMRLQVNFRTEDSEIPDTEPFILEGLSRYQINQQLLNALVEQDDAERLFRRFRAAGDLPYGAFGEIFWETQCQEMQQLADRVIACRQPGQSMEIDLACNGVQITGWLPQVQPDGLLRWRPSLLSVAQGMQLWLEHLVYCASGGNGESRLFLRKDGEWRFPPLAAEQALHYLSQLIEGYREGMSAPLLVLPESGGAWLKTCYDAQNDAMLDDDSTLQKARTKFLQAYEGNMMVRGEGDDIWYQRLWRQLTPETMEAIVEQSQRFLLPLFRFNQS
Chain of Exodeoxyribonuclease V (P08394 whole entry): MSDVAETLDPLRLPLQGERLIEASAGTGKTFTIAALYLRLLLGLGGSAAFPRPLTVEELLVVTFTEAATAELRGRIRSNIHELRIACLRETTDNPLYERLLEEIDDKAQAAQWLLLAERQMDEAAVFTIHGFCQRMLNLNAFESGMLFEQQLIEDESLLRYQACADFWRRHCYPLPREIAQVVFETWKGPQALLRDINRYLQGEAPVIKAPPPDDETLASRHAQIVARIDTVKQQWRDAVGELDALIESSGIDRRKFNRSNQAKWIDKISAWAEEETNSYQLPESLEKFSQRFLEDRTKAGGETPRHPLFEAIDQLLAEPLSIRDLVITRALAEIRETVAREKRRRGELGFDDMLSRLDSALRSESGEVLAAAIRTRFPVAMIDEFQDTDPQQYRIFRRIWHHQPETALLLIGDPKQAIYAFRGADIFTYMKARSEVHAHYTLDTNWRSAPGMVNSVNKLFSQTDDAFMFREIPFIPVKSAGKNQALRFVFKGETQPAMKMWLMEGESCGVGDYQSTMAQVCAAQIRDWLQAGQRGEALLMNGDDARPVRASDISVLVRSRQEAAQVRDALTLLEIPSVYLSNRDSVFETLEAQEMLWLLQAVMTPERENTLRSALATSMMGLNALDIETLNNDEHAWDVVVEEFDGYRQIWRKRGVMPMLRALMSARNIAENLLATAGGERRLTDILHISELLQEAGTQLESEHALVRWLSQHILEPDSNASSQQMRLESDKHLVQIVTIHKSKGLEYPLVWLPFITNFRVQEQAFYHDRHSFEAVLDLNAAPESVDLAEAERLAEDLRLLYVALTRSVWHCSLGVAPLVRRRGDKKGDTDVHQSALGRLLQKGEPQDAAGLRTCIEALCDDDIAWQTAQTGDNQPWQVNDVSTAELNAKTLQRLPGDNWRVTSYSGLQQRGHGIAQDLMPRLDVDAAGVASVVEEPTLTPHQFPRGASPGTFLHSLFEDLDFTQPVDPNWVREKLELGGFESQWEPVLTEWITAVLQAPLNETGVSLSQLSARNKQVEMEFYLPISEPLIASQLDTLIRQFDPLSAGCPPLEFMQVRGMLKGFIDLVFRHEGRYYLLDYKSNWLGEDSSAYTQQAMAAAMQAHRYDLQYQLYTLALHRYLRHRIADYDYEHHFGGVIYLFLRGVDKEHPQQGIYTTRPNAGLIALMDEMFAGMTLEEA
Chain of Phospholipase A2 (P04054 whole entry): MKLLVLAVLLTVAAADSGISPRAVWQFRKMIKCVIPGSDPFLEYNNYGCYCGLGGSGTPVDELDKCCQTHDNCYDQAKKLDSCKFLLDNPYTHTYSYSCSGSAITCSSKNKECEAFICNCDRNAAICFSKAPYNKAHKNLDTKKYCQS

N#CC(C#N)=NNc1ccc(-n2ccc(C(F)(F)F)n2)cc1
EC50 (cells [1]): > 29.9 µM (inactive) | AC50 (INS1): 5.57 µM (active) | EC50 (Protein RecA): 2.98 µM (active) | EC50 (BJ [2]): 11.4 µM (active) | AC50 (HEK293 [3]): 3.38 µM (active) | EC50 [4]: 18.2 µM (inconclusive) | IC50 (Galanin receptor type 3): > 1.11 µM (active) | AC50 [5]: 2.03 µM (active) | EC50 (BJ [6]): > 133 µM (inactive) | AC50 (Paired box protein Pax-8): 3.44 µM (active) | EC50 (BJ [7]): 13.6 µM (inconclusive) | EC50 (BJ [8]): > 150 µM (not active)

CC(=O)NC(c1ccc(C(C)C)cc1)c1ccc2cccnc2c1O (stereo not given)
AC50 [9]: 0.35 µM (active) | IC50 (Jurkat): 2.6 µM (active) | AC50 (INS1): 0.494 µM (active) | IC50 (Exodeoxyribonuclease V): > 118 µM (inactive) | AC50 [10]: 1.3 µM (active) | IC50 [11]: > 80 µM (inactive) | EC50 (BJ [2]): 2.29 µM (inconclusive) | AC50 (HEK293 [3]): 5.2 µM (active) | EC50 [4]: 8.18 µM (inconclusive) | IC50 (HEK293 [12]): 56.1 µM (inactive) | EC50 (cells [13]): > 350 µM (not active) | EC50 [14]: 0.337 µM (active) | IC50 [15]: 1.36 µM (active) | IC50 (HEK293 [16]): 5.24 µM (active) | AC50 [17]: 3.58 µM (active) | EC50 (cells [18]): 3.64 µM (active) | IC50 [19]: > 118 µM (inactive) | EC50 [20]: 0.424 µM (active) | AC50 (Paired box protein Pax-8): 2.03 µM (active) | AC50 [21]: 0.528 µM (active) | EC50 (BJ [7]): 0.958 µM (active) | EC50 (BJ [8]): 8.47 µM (inconclusive)

CN1C(=O)C(C)(C)c2cc(S(=O)(=O)NCc3ccc(C(=O)NCc4ccco4)cc3)ccc21
CC50 (MEF): > 99 µM (inactive) | EC50 [22]: > 99 µM (inactive) | EC50 [23]: 3.35 µM (active) | EC50 [24]: 29.2 µM (inactive) | EC50 [25]: 7.01 µM (active)

COc1ccc2c(N3CCN(C(=O)c4ccc(Cl)cc4)CC3)ccnc2c1
AC50 (Candida albicans [26]): 12.4 µM (active) | AC50 (Candida albicans [27]): 8.86 µM (active) | AC50 (Candida albicans [28]): 18.4 µM (active)

Cc1ccc(-n2c(SCC(=O)N/N=C/C=C/c3ccccc3[N+](=O)[O-])nc3ccccc3c2=O)cc1
IC50 (Phospholipase A2): 2.53 µM (active) | IC50 (Cysteine protease ATG4B): 6.42 µM (active)

Cc1c(C(=O)OCC(=O)N(CC(C)C)c2c(N)n(Cc3ccccc3)c(=O)[nH]c2=O)oc2ccccc12
AC50 (DNA topoisomerase): 9.46 µM (active)
